Measured values published in patent US12637469B2, “1H-pyrazole derivative and application thereof as dual target inhibitor of Syk and VEGFR2” (Ocumension Therapeutics (Suzhou) Co., Ltd., priority 2020, dated 2026).

Columns and labels:
Syk kinase = biological target: T1, Syk kinase (Homo sapiens, UniProt P43405); test: In vitro inhibitory effect on Syk kinase (HTRF enzymatic experiment); format: biochemical; settings: ATP 2 μM, read-out: IC50 (nM) for inhibition of Syk enzyme
T1 construct: purchased Invitrogen PV3857
From the text: The interaction between the substrate and the enzyme was detected by HTRF, using the IC50 value of the compound as an indicator to evaluate the inhibitory effect of the compound on Syk kinase.
• Syk kinase (Invitrogen, PV3857) • DTT (Sigma #43815) • ATP (Sigma #A7699) • MgCl2 (Sigma #63020) • MnCl2 (Sigma #M1787) • EDTA (Invitrogen #15575-020) • HEPES Buffer (Invitrogen #15630-080) • HTRF® KinEASE™ TK (Cisbio #62TKOPEC, 20000 tests) • Low volume, 384-well, white polystyrene plate (Greiner #784075) • 384 Well Microplates (Greiner #781946) • Centrifuge (Eppendorf #5810R) • Pipette (Eppendorf) • Pipette (Greiner) • Pipette gun (Eppendorf) • Mutidorp Pipette • POD 810 Plate Assembler Automatic Microplate Pretreatment System • Envision Reader • Experimental Steps and Methods: • a) Compound dilution and plate-making: • 1) The compound powder was weighed, dissolved in a certain amount of DMSO at an initial concentration of 10 mM. • 2) The compound was diluted to a concentration of 0.74 mM, and plated with POD18, 135 nL per well, the starting compound concentration was 10 μM, and there were 11 concentration points, with 3-fold descending serial dilutions. • b) Enzyme-substrate reaction stage: • 1) Preparation and dilution of the experimental buffer: the 5×HTRF Buffer in the kit was diluted to 1×, and specified amounts of DTT and MgCl2 solutions were added for use. • 2) SYK enzyme reaction solution was prepared with 1×HTRF Buffer so that the final reaction concentration of SYK kinase was 0.0156 ng/μL. • 3) TK-Substrate-biotin/ATP mixture was prepared so that the final substrate concentration was controlled at 0.2 μM. ATP concentration was controlled at 2 μM. • 4) The solution and the mixture were added with a Mutidorp pipette, SYK enzyme solution and TK-Substrate-biotin/ATP mixture were each added 5 μL per well, and incubated with 23 solution for 1 hour. • c) Detection stage: • 1) 13.33 mL of ethylenediaminetetraacetic acid solution was added to the detection buffer of the kit, and specified amounts of Eu-labeled antibody and XL-665 were added to prepare the detection solution. • 2) The solution was added with a Mutidorp pipette, 10 μL of detection solution per well, and incubated with 23 solution for 1 hour. The reaction of the enzyme and substrate mixture was stopped. • 3) After centrifugation, the reading was obtained on Envision. • d) Data analyzation: the data was analyzed using XL-Fit and the IC50 value of the compound was calculated.

[1] = biological target: VEGFR2 kinase (KDR enzyme) (Homo sapiens, UniProt P35968); test: In vitro inhibitory effect on VEGFR2 kinase (ADP-Glo enzymatic experiment); format: biochemical; settings: read-out: IC50 (nM) for inhibition of VEFGR2 enzyme
Chain of VEGFR2 kinase (KDR enzyme) (P35968 20-1356, species assumed): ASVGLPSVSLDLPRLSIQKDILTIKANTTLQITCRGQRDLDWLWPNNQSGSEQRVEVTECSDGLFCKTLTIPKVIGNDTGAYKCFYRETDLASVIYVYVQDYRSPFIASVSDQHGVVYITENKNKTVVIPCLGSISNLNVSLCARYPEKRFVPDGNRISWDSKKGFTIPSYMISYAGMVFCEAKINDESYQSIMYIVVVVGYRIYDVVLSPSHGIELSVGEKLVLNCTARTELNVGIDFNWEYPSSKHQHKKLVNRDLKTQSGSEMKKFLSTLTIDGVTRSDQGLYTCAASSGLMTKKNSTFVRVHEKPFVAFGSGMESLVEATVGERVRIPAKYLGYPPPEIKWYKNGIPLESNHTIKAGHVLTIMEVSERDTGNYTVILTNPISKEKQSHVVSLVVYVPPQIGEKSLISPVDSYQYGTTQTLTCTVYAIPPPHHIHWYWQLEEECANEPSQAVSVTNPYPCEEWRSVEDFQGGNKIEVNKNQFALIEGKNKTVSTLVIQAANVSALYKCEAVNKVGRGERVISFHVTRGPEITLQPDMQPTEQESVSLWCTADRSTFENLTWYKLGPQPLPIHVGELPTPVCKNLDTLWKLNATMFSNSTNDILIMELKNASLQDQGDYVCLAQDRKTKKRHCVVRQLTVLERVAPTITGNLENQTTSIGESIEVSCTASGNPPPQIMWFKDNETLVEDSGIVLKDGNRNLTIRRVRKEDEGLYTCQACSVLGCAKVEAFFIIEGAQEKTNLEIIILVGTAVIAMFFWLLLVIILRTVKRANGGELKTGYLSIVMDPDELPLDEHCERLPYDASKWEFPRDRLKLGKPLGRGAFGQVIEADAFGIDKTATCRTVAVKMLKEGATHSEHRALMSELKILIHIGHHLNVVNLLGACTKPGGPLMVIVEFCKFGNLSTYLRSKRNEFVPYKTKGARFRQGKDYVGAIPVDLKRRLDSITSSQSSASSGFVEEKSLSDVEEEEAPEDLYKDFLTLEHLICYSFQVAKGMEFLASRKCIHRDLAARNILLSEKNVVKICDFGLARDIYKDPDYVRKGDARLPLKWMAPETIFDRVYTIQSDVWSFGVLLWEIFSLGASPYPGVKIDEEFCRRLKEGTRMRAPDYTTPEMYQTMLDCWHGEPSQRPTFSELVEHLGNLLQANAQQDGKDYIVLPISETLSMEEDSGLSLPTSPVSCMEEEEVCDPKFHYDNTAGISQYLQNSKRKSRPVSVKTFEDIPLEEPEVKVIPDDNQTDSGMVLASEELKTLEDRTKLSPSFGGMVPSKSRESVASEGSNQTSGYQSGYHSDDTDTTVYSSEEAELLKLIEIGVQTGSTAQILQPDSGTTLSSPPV
Procedure: The VEGFR2 kinase assay kit is intended for measuring VEGFR2 kinase activity using Kinase-Glo®MAX as a detection reagent, and compound screening and analysis were conducted using the IC50 value of the compound as an indicator.
The ADP-GLO™ Kinase Assay is an analytical reaction in which a luminescent kinase is used to determine the adenosine diphosphate formed by the kinase; ADP is converted to ATP, i.e., an optical signal is generated by Ultra-Glo™ luciferase. The optical signal is positively correlated with ADP quantity and kinase activity. This assay is ideal for determining the activity of the compound, making it ideal for primary screening and kinase selectivity analysis. The ADP-Glo™ Kinase Assay can be used to monitor the activity of virtually any ADP-producing enzyme such as a kinase orATPase: • 1) The enzyme, substrate, ATP and inhibitor were diluted in a kinase buffer; • 2) 384-well plate: 1 μL of inhibitor or (5% dimethyl sulfoxide solution), 2 μL of KDR enzyme, 2 μL of matrix/ATP mixture; • 3) the mixture was incubated at room temperature for 60 minutes; • 4) 5 μL of ADP-GLO™ reagent was added; • 5) the mixture was incubated for 40 minutes at room temperature; • 6) 10 μL of kinase detection reagent was added; • 7) the mixture was incubated at room temperature for 30 minutes; • 8) the luminescence was recorded (integration time 0.5-1 sec). The data was shown in relative light units (rlu), which was directly related to the amount of […]. There was correlation between the percent of the conversion from ATP to ADP for each kinase amount and the corresponding signal-to-background ratio. • 9) Data analysis: (a) KDR enzyme was titrated with 50 μM of ATP, and the luminescent signal produced by KDR enzyme was shown; (b) staurosporine dose response was generated with 1.5 ng of KDR to determine the IC50 value of the inhibitor.

Row | IC50 (Syk kinase) | IC50 [1] | Structure (SMILES)
1 | 30 nM | 31 nM | CC1(O)CCN(c2ccc(Nc3nc4ccc(-c5cn[nH]c5)cc4n4ccnc34)cc2)CC1 [Compound 8]
2 | 23 nM | 22 nM | N=S1(=O)CCN(c2ccc(Nc3nc4ccc(-c5cn[nH]c5)cc4n4ccnc34)cc2)CC1 [Compound 9]
3 | 34 nM | 56 nM | c1cn2c(n1)c(Nc1ccc(C3CCOCC3)cc1)nc1ccc(-c3cn[nH]c3)cc12 [Compound 11]
4 | 125 nM | 31 nM | c1cn2c(n1)c(Nc1ccc(N3CCOCC3)cc1)nc1ccc(-c3cc[nH]n3)cc12 [Compound 2]
5 | 34 nM | 42 nM | CN1CCCN(c2ccc(Nc3nc4ccc(-c5cn[nH]c5)cc4n4ccnc34)cc2)CC1 [Compound 7]

The next lines start with the compound.

Row | Structure (SMILES) | IC50 (Syk kinase) | IC50 [1]
6 | CC(=O)N=S1(=O)CCN(c2ccc(Nc3nc4ccc(-c5cn[nH]c5)cc4n4ccnc34)cc2)CC1 [Compound 10] | 11 nM | 41 nM
7 | CN1CCN(c2ccc(Nc3nc4ccc(-c5cn[nH]c5)cc4n4ccnc34)cc2)CC1 [Compound 6] | 50 nM | 44 nM
8 | c1cn2c(n1)c(Nc1ccc(N3CCC4(CC3)COC4)cc1)nc1ccc(-c3cn[nH]c3)cc12 [Compound 12] | 315 nM | 88 nM
9 | c1cn2c(n1)c(Nc1ccc(N3CCN(C4COC4)CC3)cc1)nc1ccc(-c3cn[nH]c3)cc12 [Compound 5] | 17 nM | 19 nM
